Source: US12186342B2, “Autologous irradiated whole cell tumor vaccines lentivirally engineered to express CD80, IL-15 and IL-15 receptor alpha” (The Regents of the University of California, priority 2016, dated 2025)

Columns and labels:
Format in all cases: in vivo, mice
32Dp210 leukemia = assay: Dose-finding studies of chemotherapeutic regimens in advanced 32Dp210 leukemia; settings: data not shown
Method: (§1) The major clinical application of an autologous AML vaccine strategy would be as post-remission immunotherapy to prolong relapse free survival in patients with MRD. To recapitulate this clinical setting, we developed a murine model of MRD for testing our vaccine. Initially, several chemotherapeutic regimens, previously shown to induce transient responses in 32Dp210 leukemia, were tested^48. […] A different strategy was therefore adopted for achieving post-remission MRD in mice with high leukemia burdens by lentivirally engineering a 32Dp210 cell line to express the herpes thymidine kinase (HSV-TK) suicide gene^36. Using this approach, treatment with ganciclovir (GCV) could be used to induce remission without the confounding immune and cytopenic effects of conventional chemotherapy^49. In this context, GCV treatment should not have a direct impact on leukemia-associated immune deviation, except as associated with reduction of tumor burden, since effects of GCV are primarily restricted to suppression of marrow proliferation, but not inhibition of immune function^50.

[1] = system: 32Dp210-luc-HSV-TK+ leukemia; assay: Post-remission vaccination in the MRD model
Text: FIG. 18A-FIG. 18B depict the efficacy of the 32Dp210 vaccine as post-remission therapy to treat MRD. (FIG. 18A) In vivo bioluminescence analyses of 32Dp210-luc-HSV-TK leukemic mice undergoing GCV treatment with or without post-remission vaccination with 32Dp210-CD80-IL-15-IL-15Rα cells. Mice were inoculated with 1×10^5 32Dp210 cells on day 0 as indicated by the schema at the top of the figure. On day 10 mice underwent in vivo bioluminescence imaging and average photon counts per animal were plotted (upper set of bar graphs). N1-N5 represents normal, non-tumor bearing mice injected with luciferin on the same day, to establish background levels. Lanes 1-15 indicate mice inoculated with leukemia and subsequently treated with GCV according to the schema at the top of the figure. Gray bars in lanes 1-5 indicate IVIS analyses of mice that would receive 14 days GCV treatment and no further intervention; Black bars in lanes 6-15 depict IVIS analyses of mice treated with 14 days of GCV treatment that would be followed by serial vaccination with irradiated 32Dp210-IL-15/IL-15Rα/CD80 cells beginning at day 17. Lower panel of bar graphs depicts semi-quantitative IVIS studies after 5 days of GCV administration (day 15) in the same animals analyzed in the upper panel of bar graphs at day 10 after tumor inoculum. […]

[2] = system: 32Dp210-luc-HSV-TK+ leukemia; assay: Minimal residual disease model: GCV remission induction
Method: FIG. 17A-FIG. 17C depict development of a minimal residual diseased (MRD) model in 32Dp210 leukemia. (FIG. 17A) In vivo bioluminescence analysis of effects of ganciclovir (GCV) treatment of 32Dp210-luc-HSV-TK+ leukemia. Mice inoculated IV with 32Dp210-luc-HSV-TK+ leukemia on day 0 were treated for 14 days with GCV (50 mg/kg) beginning at day 14. Left panel: Day 14 after tumor inoculation, Right panel: Day 28 after tumor inoculation and day 14 of GCV treatment. […] Mean photon counts+S.E.M. per animal are plotted on the y-axis after imaging at day 14 (white bars) and day 28 after tumor inoculation (gray bars). Uninjected controls (n=5) represent normal, non-tumor bearing mice injected with luciferin to establish background levels of in vivo bioluminescence used to define “complete remission”. […] Leukemic mice with tumor progression despite GCV administration (Non-responders, n=3) are depicted in the last two lanes on the right. […] Comparison of the percentage of 32Dp210-GFP+HSVTK+ cells in peripheral blood, spleen and bone marrow of responding mice (MRD). The percentage of GFP+ cells detected by flow cytometric analysis of blood (filled circle), spleen (open triangle), and bone marrow (filled diamonds) from each mouse achieving IVIS defined remission with MRD, are indicated on the Y axis. The mean for each group is designated by a horizontal line for each group as well as the S.E.M. Mice with MRD defined by semi-quantitative in vivo bioluminescence analyses had <5% leukemic cells in all tissues examined consistent with the clinical/pathological definition of leukemic remission.
(§2) At day 10 after IV injection of 1×10^5 32Dp210-luc cells, all mice had detectable leukemia by IVIS, and began a 14 day treatment (50 mg/kg/day) with Ganciclovir (GCV) (APP Pharmaceuticals, LLC, Schaumberg, IL). A higher dose of 100 mg GCV/kg/day was administered to confirm that GCV had minimal or no effects on blood counts (Table 1).
To validate this model, mice were treated daily with GCV once 32Dp210 leukemia was evident by IVIS. […] (FIG. 17A). […] To assess responses after GCV treatment, the frequency of 32Dp210-GFP+/HSV-TK+ cells in spleen, blood, and bone marrow were quantified by flow cytometric analysis (FIG. 17C). […] Lower numbers of GFP+ leukemia cells were detected in spleen after 14 days of GCV.

Effect of GCV on CBC = settings: after 2 weeks of treatment
Method: as §2, §1

Compound: Nc1ccn([C@@H]2O[C@H](CO)[C@@H](O)[C@@H]2O)c(=O)n1 [cytosine arabinoside]
- outcome of dose-finding studies in leukemic mice (32Dp210 leukemia): either ineffective, or resulted in both toxicity and lethality

Compound: Nc1nc(O)c2ncn(COC(CO)CO)c2n1 [GCV, ganciclovir]
- relapse after remission ([1]; 14-day GCV with no further therapy): eventually relapsed
- response by in vivo bioluminescence ([1]; day 5 of GCV administration (day 15), 1×10^5 cells inoculated): most of the leukemic mice had major responses
- mice showing remission ([2]; GCV begun on day 14 after tumor inoculation, read two weeks later (day 28)): Seven of 10
- blasts in bone marrow ([2]; GCV-treated mice in remission): < 5%
- GFP+ cells in BM ([2]; GCV-treated mice in remission, n=7/7): < 0.5%
- GFP+ leukemia cells in spleen ([2]; after 14 days of GCV): Lower numbers
- leukemic cells in all tissues examined ([2]; mice with MRD, blood, spleen, bone marrow): < 5%
- Lymphocytes (Effect of GCV on CBC; 100 mg GCV/kg/day): 2.036 ± 0.279 k/μL
- Monocytes (Effect of GCV on CBC; 100 mg GCV/kg/day): 0.310 ± 0.0364 k/μL
- Neutrophils (Effect of GCV on CBC; 100 mg GCV/kg/day): 4.141 ± 0.580 k/μL
- White Blood Cells (Effect of GCV on CBC; 100 mg GCV/kg/day): 6.638 ± 0.575 k/μL
- decline in WBC, neutrophils, hemoglobin, or monocytes (Effect of GCV on CBC): no significant decline
- number of peripheral lymphocytes (Effect of GCV on CBC; remained within the normal range): only a small reduction
